Where two headings read alike, the source gives them in different places.
What was measured:
human GABA A α1β2/3γ2 = human GABA A α1β2/3γ2 (Homo sapiens, UniProt P14867+P18507); experiment: [3H]flumazenil competition binding, HEK293 cells expressing human α1β2/3γ2; design: expressed in transfected cells; host or cells: HEK293; details: for Ki: [3H]flumazenil competition, human α1β2/3γ2, read-out: hKi α1; for hKi α1/hKi α5: binding selectivity ratio
Ts65Dn and control mice [1] = experiment: Exploratory activity: hole board; assay type: in vivo; details: 20 mg/kg p.o. chronic; for ABA index / Crossings / Number of Head-dippings / Rearings / Time exploring holes: hole board
Procedure: (§1) For mice studies, active pharmaceutical compounds of present invention were formulated in chocolate-milk (Puleva, Barcelona, Spain). Active pharmaceutical compounds of present invention or vehicle were administered p.o. at a dose of 20 mg/kg for six weeks. Their administration was prolonged during the 30 days of the behavioral assessment.
The hole board is a wooden box (32×32×30 cm) with four holes. The floor is divided into nine 10 cm squares. In a single 5 minute trial the number of explorations, the time spent exploring each hole, and overall activity in the apparatus were measured. A repetition index was also calculated (exploration of holes previously explored) as a function of the number of ABA alternations.

human GABA A α5β3γ2 = human GABA A α5β3γ2 (Homo sapiens, UniProt P18507+P31644); experiment: [3H]flumazenil competition binding, HEK293 cells expressing human α5β3γ2; design: expressed in transfected cells; host or cells: HEK293
human GABA A α2β3γ2 = human GABA A α2β3γ2 (Homo sapiens, UniProt P18507+P47869); experiment: Two-microelectrode voltage clamp, modulation of GABA EC10 response in Xenopus oocytes, α2β3γ2; assay type: cell-based; design: expressed in transfected cells; host or cells: Xenopus laevis oocytes; details: % change of EC10 GABA response at 3 μM or at 30×Ki if Ki below 0.1 μM
Procedure: Table 2b. […] Effect at human GABA A α5 receptors: % change of a submaximal (EC10) response to GABA determined at 30×Ki value from the flumazenil binding assay.
Subtype-selective effects were determined on cloned receptors expressed in Xenopus oocytes. Human recombinant GABA A receptors were expressed in Xenopus laevis oocytes. Current responses were evoked in two-microelectrode voltage-clamp condition by applying an EC10 of GABA before and during the co-application of the test compound. Response amplitudes in the presence of the test compound are expressed as percentage of the amplitudes before drug addition.

Ts65Dn and control mice [2] = experiment: Motor coordination: rotarod; assay type: in vivo; details: mice of either genotype, 20 mg/kg p.o. chronic
Procedure: as §1
Motor coordination was evaluated using a rotarod device (Ugo Basile; Comerio, Italy), which consists of a 37-cm-long, 3-cm diameter plastic rod that rotates at different speeds. In a single session, 4 trials with a maximum duration of 60 s each were performed. In the first three tests, the rod was rotated at constant speeds of 5, 25 and 50 rpm, respectively. The last trial consisted of an acceleration cycle, in which the rod rotated progressively faster, and the animal had to adapt to the growing demands of the test. The length of time that each animal stayed on the rotarod was recorded.

[3] = tested on: hippocampal slices of Ts65Dn mice; experiment: Long term potentiation in hippocampal slices after chronic treatment; assay type: in vivo; details: 20 mg/kg p.o. for six weeks, vs control mice
Procedure: The effect of chronic administration of 8581 and R1 on LTP was evaluated in the Ts65Dn mouse model of Down syndrome. 8581, R1 (20 mg/kg p.o.) or vehicle was administered for six weeks. Mice were decapitated 1 hour after the last administration and the brains were rapidly removed. The hippocampi were dissected and 400-μm slices were cut with a tissue chopper. […] Field excitatory postsynaptic potentials (fEPSPs) were recorded from the CA1 stratum radiatum with a glass micropipette (1-4 MΩ) containing 2 M NaCl and evoked by stimulation of the Schaffer collaterals with insulated bipolar platin/iridium electrodes >500 μm away from the recording electrode. The stimulus strength was adjusted to evoke fEPSPs equal to 50% of the relative maximum amplitude without superimposed population spike. After stable baseline recordings (100 μs pulse-duration, 0.033 Hz), long term potentiation (LTP) was induced by TBS (10 trains of 5 pulses at 100 Hz and intervals of 200 ms). The duration of the stimulation pulses was doubled during the tetanus. After 20 min of baseline recording, LTP was induced and recorded for 80 min in each individual hippocampal slice. […] For the analysis, fEPSP slopes were expressed as a percentage of the baseline values recorded. Results from several slices were expressed as mean±SEM. […]

human GABA A α3β3γ2 = human GABA A α3β3γ2 (Homo sapiens, UniProt P18507+P34903); experiment: [3H]flumazenil competition binding, HEK293 cells expressing human α3β3γ2; design: expressed in transfected cells; host or cells: HEK293; details: for hKi α3/hKi α5: binding selectivity ratio

## Cc1onc(-c2ccc(F)cc2)c1COc1ccc(C(=O)N2CCS(=O)(=O)CC2)cn1 [Compound R1, (1,1-Dioxo-1,6-thiomorpholin-4-yl)-{6-[3-(4-fluoro-phenyl)-5-methyl-isoxazol-4-ylmethoxy]-pyridin-3-yl}-methanone]
Human GABA A α1β2/3γ2
  Ki: 985 nM
  hKi α1/hKi α5: 209
Ts65Dn and control mice [1]; Ts65Dn mice
  hyperactivity (crossings) of Ts65Dn mice in hole board: reduced this hyperactivity
  ABA index: 4.25
  Crossings: 93.19
  Number of Head-dippings: 20.50
  Rearings: 13.19
  Time exploring holes: 37.58
Ts65Dn and control mice [1]; control mice
  ABA index: 4.06
  Crossings: 72.13
  Number of Head-dippings: 16.13
  Rearings: 13.86
  Time exploring holes: 28.28
Human GABA A α5β3γ2; [3H]flumazenil competition, human α5β3γ2, read-out: hKi α5
  Ki: 4.7 nM
Human GABA A α2β3γ2
  Efficacy GABA A α2β3γ2: −6%
Ts65Dn and control mice [2]
  motor coordination in the rotarod: not modified
[3]
  LTP induced in hippocampal slices of treated Ts65Dn animals: not different from that induced in hippocampal slices of control mice
Human GABA A α3β3γ2
  Ki: 489 nM
  hKi α3/hKi α5: 104

## FC(F)c1ncn2c1Cn1ncnc1-c1cc(Br)ccc1-2 [Compound 8581, 3-Bromo-10-difluoromethyl-9H-imidazo[1,5-a][1,2,4]triazolo[1,5-d][1,4]benzodiazepine]
Human GABA A α1β2/3γ2
  Ki: 174 nM
  hKi α1/hKi α5: 38
Ts65Dn and control mice [1]; Ts65Dn mice
  hyperactivity (crossings) of Ts65Dn mice in hole board: reduced this hyperactivity
  normalization of ABA index of Ts65Dn mice: normalized
  ABA index: 3.89
  Crossings: 106.11
  Number of Head-dippings: 18.22
  Rearings: 20.67
  Time exploring holes: 26.28
Ts65Dn and control mice [1]; control mice
  ABA index: 2.64
  Crossings: 73.27
  Number of Head-dippings: 14.82
  Rearings: 17.73
  Time exploring holes: 30.43
Human GABA A α5β3γ2
  Ki: 4.6 nM
Human GABA A α2β3γ2
  Efficacy GABA A α2β3γ2: −11%
Ts65Dn and control mice [2]
  motor coordination in the rotarod: not modified
[3]
  LTP induced in hippocampal slices of treated Ts65Dn animals: not different from that induced in hippocampal slices of control mice
Human GABA A α3β3γ2
  Ki: 79.6 nM
  hKi α3/hKi α5: 17
